Publication PMC7901654, “Bioisosteric Discovery of NPA101.3, a Second-Generation RET/VEGFR2 Inhibitor Optimized for Single-Agent Polypharmacology” (Journal of Medicinal Chemistry, 2020)

Tests used:
Experiment in all cases: KinomeScan panel screen
Format in all cases: binding
MYO3A = target: T1, MYO3A (Homo sapiens, UniProt Q8NEV4); conditions: 100 nM, read-out: Percent Control
T1 construct: purchased DiscoveRx KINOMEscan (TRKA and CSF1R IC50 enzymes from Invitrogen)
Experimental: (§1) In addition, NPA101.3, at a concentration of 100 nM, was subjected to a kinome scan against a 96-kinase panel representing major kinome clusters (Table S2). The compound featured good selectivity, displaying strong binding activity (>90% bound) for only seven additional kinases [CSF1R (colony stimulating factor 1 receptor), FRK (fyn-related Src family tyrosine kinase), HCK (HCK proto-oncogene, Src family tyrosine kinase), LYN (lyn proto-oncogene, Src family tyrosine kinase), MKNK2 (MAPK-interacting serine/threonine kinase 2), TRKA (neurotrophic receptor tyrosine kinase 1), and TRKC (neurotrophic receptor tyrosine kinase 3)] and weak binding (>10–35% bound) for six other kinases (Table S2 and Figure S2). It is important to note that the measurement of binding affinity, which is based on control ligand displacement (Kd), is more sensitive than the in vitro kinase assay. Among the seven kinases with >90% binding, TRKA and CSF1R were selected for an in vitro kinase assay.
(§2) Supplementary Table S2: NPA101.3 KinomeScan Panel screen.
(§3) NPA101.3 was screened at a single concentration of 100 nM. Hits values lower than
(§4) 10% of control were considered strongly positive.
(§5) DiscoveRx Gene Entrez Gene Percent Compound
(§6) Symbol Symbol Control Concentration

DYRK1A = target: T2, DYRK1A (Homo sapiens, UniProt Q13627); conditions: 100 nM, read-out: Percent Control
T2 construct: purchased DiscoveRx KINOMEscan (TRKA and CSF1R IC50 enzymes from Invitrogen)
Experimental: as §1, §2, §3, §4, §5, §6

FRK = target: T3, FRK (Homo sapiens, UniProt P42685); conditions: 100 nM
T3 construct: purchased DiscoveRx KINOMEscan (TRKA and CSF1R IC50 enzymes from Invitrogen)
T3 sequence (P42685 whole entry): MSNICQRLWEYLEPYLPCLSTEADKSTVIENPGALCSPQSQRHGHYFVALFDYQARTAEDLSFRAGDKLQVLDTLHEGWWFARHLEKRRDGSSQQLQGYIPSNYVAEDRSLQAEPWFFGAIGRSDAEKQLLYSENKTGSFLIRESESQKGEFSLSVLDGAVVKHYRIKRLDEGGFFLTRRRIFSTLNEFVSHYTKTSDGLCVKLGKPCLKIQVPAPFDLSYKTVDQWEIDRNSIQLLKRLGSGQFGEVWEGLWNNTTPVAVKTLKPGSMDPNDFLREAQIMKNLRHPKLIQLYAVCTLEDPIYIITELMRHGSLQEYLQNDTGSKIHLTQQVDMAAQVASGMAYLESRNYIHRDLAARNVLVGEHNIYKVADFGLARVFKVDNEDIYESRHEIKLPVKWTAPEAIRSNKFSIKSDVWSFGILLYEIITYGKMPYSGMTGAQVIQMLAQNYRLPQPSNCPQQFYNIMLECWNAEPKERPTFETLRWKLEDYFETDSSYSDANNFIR
Experimental: as §1, §2, §3, §4, §5, §6

PDPK1 = target: T4, PDPK1 (Homo sapiens, UniProt O15530); conditions: PDPK1, 100 nM; read-out: Percent Control
T4 construct: purchased DiscoveRx KINOMEscan (TRKA and CSF1R IC50 enzymes from Invitrogen)
Experimental: as §1, §2, §3, §4, §5, §6

CAMK1 = target: T5, CAMK1 (Homo sapiens, UniProt Q14012); conditions: CAMK1, 100 nM; read-out: Percent Control
T5 construct: purchased DiscoveRx KINOMEscan (TRKA and CSF1R IC50 enzymes from Invitrogen)
Experimental: as §1, §2, §3, §4, §5, §6

DRAK1 = target: T6, DRAK1 (Homo sapiens, UniProt Q9UEE5); conditions: DRAK1, 100 nM; read-out: Percent Control
T6 construct: purchased DiscoveRx KINOMEscan (TRKA and CSF1R IC50 enzymes from Invitrogen)
Experimental: as §1, §2, §3, §4, §5, §6

NEK2 = target: T7, NEK2 (Homo sapiens, UniProt P51955); conditions: NEK2, 100 nM; read-out: Percent Control
T7 construct: purchased DiscoveRx KINOMEscan (TRKA and CSF1R IC50 enzymes from Invitrogen)
Experimental: as §1, §2, §3, §4, §5, §6

PLK4 = target: T8, PLK4 (Homo sapiens, UniProt O00444); conditions: PLK4, 100 nM; read-out: Percent Control
T8 construct: purchased DiscoveRx KINOMEscan (TRKA and CSF1R IC50 enzymes from Invitrogen)
Experimental: as §1, §2, §3, §4, §5, §6

AURKA = target: T9, AURKA (Homo sapiens, UniProt O14965); conditions: 100 nM, read-out: Percent Control
T9 construct: purchased DiscoveRx KINOMEscan (TRKA and CSF1R IC50 enzymes from Invitrogen)
Experimental: as §1, §2, §3, §4, §5, §6

WNK1 = target: T10, WNK1 (Homo sapiens, UniProt Q9H4A3); conditions: WNK1, 100 nM; read-out: Percent Control
T10 construct: purchased DiscoverX (outsourced KINOMEscan)
Experimental: as §1, §2, §3, §4, §5, §6

ERK1 = target: T11, ERK1 (Homo sapiens, UniProt P27361); conditions: ERK1, 100 nM; read-out: Percent Control
T11 construct: purchased DiscoveRx KINOMEscan (TRKA and CSF1R IC50 enzymes from Invitrogen)
Experimental: as §1, §2, §3, §4, §5, §6

MYLK4 = target: T12, MYLK4 (Homo sapiens, UniProt Q86YV6); conditions: MYLK4, 100 nM; read-out: Percent Control
T12 construct: purchased DiscoveRx KINOMEscan (TRKA and CSF1R IC50 enzymes from Invitrogen)
Experimental: as §1, §2, §3, §4, §5, §6

ASK1 = target: T13, ASK1 (Homo sapiens, UniProt Q99683); conditions: ASK1, 100 nM; read-out: Percent Control
T13 construct: purchased DiscoveRx KINOMEscan (TRKA and CSF1R IC50 enzymes from Invitrogen)
T13 sequence (Q99683 whole entry): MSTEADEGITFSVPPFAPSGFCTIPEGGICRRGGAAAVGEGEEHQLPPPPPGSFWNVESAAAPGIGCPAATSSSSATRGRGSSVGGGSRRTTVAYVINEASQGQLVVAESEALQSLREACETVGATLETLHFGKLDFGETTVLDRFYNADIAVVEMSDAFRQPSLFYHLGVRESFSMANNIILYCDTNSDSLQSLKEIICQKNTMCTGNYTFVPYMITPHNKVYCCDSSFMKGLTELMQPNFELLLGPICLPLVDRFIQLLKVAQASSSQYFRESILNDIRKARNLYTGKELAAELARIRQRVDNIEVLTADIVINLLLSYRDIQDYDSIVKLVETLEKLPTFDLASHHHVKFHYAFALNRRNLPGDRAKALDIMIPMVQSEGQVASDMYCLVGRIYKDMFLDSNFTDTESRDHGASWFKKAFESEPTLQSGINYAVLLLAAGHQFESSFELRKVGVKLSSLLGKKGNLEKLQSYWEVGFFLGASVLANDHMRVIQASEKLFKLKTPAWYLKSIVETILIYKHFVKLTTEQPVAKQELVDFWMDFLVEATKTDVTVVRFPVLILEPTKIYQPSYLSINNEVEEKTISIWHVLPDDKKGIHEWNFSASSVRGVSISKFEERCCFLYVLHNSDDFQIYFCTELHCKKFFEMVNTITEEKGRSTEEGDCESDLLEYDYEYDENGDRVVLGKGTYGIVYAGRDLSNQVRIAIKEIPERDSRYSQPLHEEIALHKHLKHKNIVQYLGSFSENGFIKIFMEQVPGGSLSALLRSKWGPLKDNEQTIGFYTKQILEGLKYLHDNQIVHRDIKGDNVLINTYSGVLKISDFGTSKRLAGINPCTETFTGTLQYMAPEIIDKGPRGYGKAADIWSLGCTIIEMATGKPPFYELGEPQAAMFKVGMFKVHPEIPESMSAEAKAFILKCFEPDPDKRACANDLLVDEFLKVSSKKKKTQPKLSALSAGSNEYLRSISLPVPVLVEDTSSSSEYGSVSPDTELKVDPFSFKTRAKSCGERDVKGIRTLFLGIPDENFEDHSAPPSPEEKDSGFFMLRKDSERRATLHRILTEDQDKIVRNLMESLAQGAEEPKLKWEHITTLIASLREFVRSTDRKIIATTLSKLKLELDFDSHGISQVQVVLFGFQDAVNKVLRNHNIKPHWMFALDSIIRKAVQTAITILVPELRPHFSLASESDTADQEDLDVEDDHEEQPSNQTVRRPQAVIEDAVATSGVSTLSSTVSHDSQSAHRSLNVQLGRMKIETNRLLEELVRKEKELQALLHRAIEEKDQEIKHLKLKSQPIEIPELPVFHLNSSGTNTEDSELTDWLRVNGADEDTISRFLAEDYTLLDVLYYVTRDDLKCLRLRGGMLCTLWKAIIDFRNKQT
Experimental: as §1, §2, §3, §4, §5, §6

PLK1 = target: T14, PLK1 (Homo sapiens, UniProt P53350); conditions: PLK1, 100 nM; read-out: Percent Control
T14 construct: purchased DiscoveRx KINOMEscan (TRKA and CSF1R IC50 enzymes from Invitrogen)
Experimental: as §1, §2, §3, §4, §5, §6

MAP4K3 = target: T15, MAP4K3 (Homo sapiens, UniProt Q8IVH8); conditions: MAP4K3, 100 nM; read-out: Percent Control
T15 construct: purchased DiscoveRx KINOMEscan (TRKA and CSF1R IC50 enzymes from Invitrogen)
T15 sequence (Q8IVH8 whole entry): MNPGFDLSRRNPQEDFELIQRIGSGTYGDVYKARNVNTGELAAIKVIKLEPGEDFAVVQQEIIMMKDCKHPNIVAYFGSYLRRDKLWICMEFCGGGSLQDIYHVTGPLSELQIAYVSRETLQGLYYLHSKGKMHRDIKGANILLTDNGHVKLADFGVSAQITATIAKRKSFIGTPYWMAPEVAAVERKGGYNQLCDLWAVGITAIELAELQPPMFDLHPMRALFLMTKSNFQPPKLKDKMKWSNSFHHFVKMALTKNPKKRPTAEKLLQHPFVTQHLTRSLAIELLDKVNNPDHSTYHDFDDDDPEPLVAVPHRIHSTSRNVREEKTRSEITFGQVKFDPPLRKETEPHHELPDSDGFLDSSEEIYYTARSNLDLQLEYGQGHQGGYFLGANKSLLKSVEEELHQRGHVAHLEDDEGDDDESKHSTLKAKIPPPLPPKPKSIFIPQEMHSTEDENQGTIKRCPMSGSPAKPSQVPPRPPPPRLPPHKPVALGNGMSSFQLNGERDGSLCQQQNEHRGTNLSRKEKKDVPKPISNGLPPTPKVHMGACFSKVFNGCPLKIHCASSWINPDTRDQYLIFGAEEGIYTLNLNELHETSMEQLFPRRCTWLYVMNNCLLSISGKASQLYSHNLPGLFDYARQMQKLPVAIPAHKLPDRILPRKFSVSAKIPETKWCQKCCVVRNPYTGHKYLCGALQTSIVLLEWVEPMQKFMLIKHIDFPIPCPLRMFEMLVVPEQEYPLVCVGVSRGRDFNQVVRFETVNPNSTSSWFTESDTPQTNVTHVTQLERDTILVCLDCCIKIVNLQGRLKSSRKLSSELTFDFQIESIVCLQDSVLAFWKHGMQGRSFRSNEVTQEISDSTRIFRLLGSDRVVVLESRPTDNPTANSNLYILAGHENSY
Experimental: as §1, §2, §3, §4, §5, §6

BRAF = target: T16, BRAF (Homo sapiens, UniProt P15056); conditions: 100 nM, read-out: Percent Control
T16 construct: purchased DiscoveRx KINOMEscan (TRKA and CSF1R IC50 enzymes from Invitrogen)
Experimental: as §1, §2, §3, §4, §5, §6

PAK1 = target: T17, PAK1 (Homo sapiens, UniProt Q13153); conditions: PAK1, 100 nM; read-out: Percent Control
T17 construct: purchased DiscoveRx KINOMEscan (TRKA and CSF1R IC50 enzymes from Invitrogen)
Experimental: as §1, §2, §3, §4, §5, §6

MUSK = target: T18, MUSK (Homo sapiens, UniProt O15146); conditions: 100 nM, read-out: Percent Control
T18 construct: purchased DiscoveRx KINOMEscan (TRKA and CSF1R IC50 enzymes from Invitrogen)
Experimental: as §1, §2, §3, §4, §5, §6

PKAC-beta = target: T19, PKAC-beta (Homo sapiens, UniProt P22694); conditions: 100 nM, read-out: Percent Control
T19 construct: purchased DiscoveRx KINOMEscan (TRKA and CSF1R IC50 enzymes from Invitrogen)
Experimental: as §1, §2, §3, §4, §5, §6

FGFR3 = target: T20, FGFR3 (Homo sapiens, UniProt P22607); conditions: FGFR3, 100 nM; read-out: Percent Control
T20 construct: purchased DiscoveRx KINOMEscan (TRKA and CSF1R IC50 enzymes from Invitrogen)
Experimental: as §1, §2, §3, §4, §5, §6

TSSK1B = target: T21, TSSK1B (Homo sapiens, UniProt Q9BXA7); conditions: 100 nM, read-out: Percent Control
T21 construct: purchased DiscoverX (outsourced KINOMEscan)
Experimental: as §1, §2, §3, §4, §5, §6

CLK1 = target: T22, CLK1 (Homo sapiens, UniProt P49759); conditions: CLK1, 100 nM; read-out: Percent Control
T22 construct: purchased DiscoveRx KINOMEscan (TRKA and CSF1R IC50 enzymes from Invitrogen)
T22 sequence (P49759 whole entry): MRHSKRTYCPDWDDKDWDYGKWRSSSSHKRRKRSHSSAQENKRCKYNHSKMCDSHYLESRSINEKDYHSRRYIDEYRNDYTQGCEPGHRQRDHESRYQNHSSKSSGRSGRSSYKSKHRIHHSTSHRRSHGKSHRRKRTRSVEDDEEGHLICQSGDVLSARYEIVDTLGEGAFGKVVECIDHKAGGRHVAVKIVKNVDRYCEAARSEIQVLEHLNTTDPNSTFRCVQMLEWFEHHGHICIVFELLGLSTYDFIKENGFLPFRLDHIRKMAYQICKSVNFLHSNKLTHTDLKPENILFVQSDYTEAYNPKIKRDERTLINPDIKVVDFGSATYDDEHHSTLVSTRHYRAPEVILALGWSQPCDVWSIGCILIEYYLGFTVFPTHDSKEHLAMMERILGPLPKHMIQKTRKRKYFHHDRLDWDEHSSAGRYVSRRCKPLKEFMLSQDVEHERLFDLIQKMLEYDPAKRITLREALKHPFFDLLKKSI
Experimental: as §1, §2, §3, §4, §5, §6

BUB1 = target: T23, BUB1 (Homo sapiens, UniProt O43683); conditions: BUB1, 100 nM; read-out: Percent Control
T23 construct: purchased DiscoveRx KINOMEscan (TRKA and CSF1R IC50 enzymes from Invitrogen)
Experimental: as §1, §2, §3, §4, §5, §6

TIE2 = target: T24, TIE2 (Homo sapiens, UniProt Q02763); conditions: TIE2, 100 nM; read-out: Percent Control
T24 construct: purchased DiscoveRx KINOMEscan (TRKA and CSF1R IC50 enzymes from Invitrogen)
Experimental: as §1, §2, §3, §4, §5, §6

GAK = target: T25, GAK (Homo sapiens, UniProt O14976); conditions: 100 nM, read-out: Percent Control
T25 construct: purchased DiscoveRx KINOMEscan (TRKA and CSF1R IC50 enzymes from Invitrogen)
Experimental: as §1, §2, §3, §4, §5, §6

ALK = target: T26, ALK (Homo sapiens, UniProt Q9UM73); conditions: 100 nM, read-out: Percent Control
T26 construct: purchased DiscoveRx KINOMEscan (TRKA and CSF1R IC50 enzymes from Invitrogen)
Experimental: as §1, §2, §3, §4, §5, §6

BMX = target: T27, BMX (Homo sapiens, UniProt P51813); conditions: 100 nM, read-out: Percent Control
T27 construct: purchased DiscoveRx KINOMEscan (TRKA and CSF1R IC50 enzymes from Invitrogen)
Experimental: as §1, §2, §3, §4, §5, §6

HIPK2 = target: T28, HIPK2 (Homo sapiens, UniProt Q9H2X6); conditions: HIPK2, 100 nM; read-out: Percent Control
T28 construct: purchased DiscoveRx KINOMEscan (TRKA and CSF1R IC50 enzymes from Invitrogen)
Experimental: as §1, §2, §3, §4, §5, §6

RIPK4 = target: T29, RIPK4 (Homo sapiens, UniProt P57078); conditions: RIPK4, 100 nM; read-out: Percent Control
T29 construct: purchased DiscoveRx KINOMEscan (TRKA and CSF1R IC50 enzymes from Invitrogen)
Experimental: as §1, §2, §3, §4, §5, §6

S6K1 = target: T30, S6K1 (Homo sapiens, UniProt P23443); conditions: S6K1, 100 nM; read-out: Percent Control
T30 construct: purchased DiscoveRx KINOMEscan (TRKA and CSF1R IC50 enzymes from Invitrogen)
Experimental: as §1, §2, §3, §4, §5, §6

EIF2AK1 = target: T31, EIF2AK1 (Homo sapiens, UniProt Q9BQI3); conditions: EIF2AK1, 100 nM; read-out: Percent Control
T31 construct: purchased DiscoveRx KINOMEscan (TRKA and CSF1R IC50 enzymes from Invitrogen)
Experimental: as §1, §2, §3, §4, §5, §6

T1 sequence (Q8NEV4 whole entry): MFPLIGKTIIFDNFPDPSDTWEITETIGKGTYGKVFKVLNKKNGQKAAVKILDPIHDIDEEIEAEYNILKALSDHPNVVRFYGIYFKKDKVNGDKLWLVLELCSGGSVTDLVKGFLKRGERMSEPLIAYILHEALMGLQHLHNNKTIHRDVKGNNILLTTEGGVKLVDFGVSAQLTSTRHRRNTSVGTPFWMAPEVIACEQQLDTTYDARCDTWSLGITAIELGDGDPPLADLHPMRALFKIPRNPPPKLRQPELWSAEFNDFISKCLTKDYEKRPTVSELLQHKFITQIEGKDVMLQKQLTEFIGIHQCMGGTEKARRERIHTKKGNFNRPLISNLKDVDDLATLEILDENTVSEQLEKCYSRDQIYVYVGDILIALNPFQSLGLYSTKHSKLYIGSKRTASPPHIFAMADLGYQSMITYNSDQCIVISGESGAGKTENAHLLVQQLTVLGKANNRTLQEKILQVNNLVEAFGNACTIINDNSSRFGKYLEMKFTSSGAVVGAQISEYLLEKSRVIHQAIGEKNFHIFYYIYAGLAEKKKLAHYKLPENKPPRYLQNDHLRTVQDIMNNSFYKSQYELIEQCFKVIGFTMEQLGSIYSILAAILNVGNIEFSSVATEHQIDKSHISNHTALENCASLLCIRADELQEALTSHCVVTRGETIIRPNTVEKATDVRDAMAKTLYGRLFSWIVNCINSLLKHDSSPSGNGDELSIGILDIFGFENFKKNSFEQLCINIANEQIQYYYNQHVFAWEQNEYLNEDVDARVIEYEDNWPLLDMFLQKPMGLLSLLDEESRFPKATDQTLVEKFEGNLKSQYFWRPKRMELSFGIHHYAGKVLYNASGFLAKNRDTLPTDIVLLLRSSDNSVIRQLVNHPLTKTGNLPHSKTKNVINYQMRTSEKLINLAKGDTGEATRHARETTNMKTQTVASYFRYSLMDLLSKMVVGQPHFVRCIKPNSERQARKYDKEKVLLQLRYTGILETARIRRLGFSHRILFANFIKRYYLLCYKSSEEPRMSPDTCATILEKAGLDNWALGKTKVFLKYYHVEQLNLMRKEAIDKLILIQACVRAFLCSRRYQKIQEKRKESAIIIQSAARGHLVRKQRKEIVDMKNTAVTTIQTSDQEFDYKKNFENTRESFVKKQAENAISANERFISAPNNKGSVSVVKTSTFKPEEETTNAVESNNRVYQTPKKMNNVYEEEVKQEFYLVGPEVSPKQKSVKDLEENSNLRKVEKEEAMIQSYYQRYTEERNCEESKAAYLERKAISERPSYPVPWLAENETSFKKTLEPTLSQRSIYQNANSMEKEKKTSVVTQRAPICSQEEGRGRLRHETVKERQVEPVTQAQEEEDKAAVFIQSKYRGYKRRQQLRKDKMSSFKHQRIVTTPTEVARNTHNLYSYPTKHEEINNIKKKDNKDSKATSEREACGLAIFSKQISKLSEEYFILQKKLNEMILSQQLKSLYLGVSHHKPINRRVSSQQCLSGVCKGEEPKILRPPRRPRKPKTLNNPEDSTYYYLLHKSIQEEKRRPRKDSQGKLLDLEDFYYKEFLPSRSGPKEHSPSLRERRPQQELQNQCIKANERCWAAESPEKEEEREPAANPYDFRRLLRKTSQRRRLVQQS

Structure (SMILES): CC(C)(C)c1cc(NC(=O)Cc2ccc(-n3cnc4cc(-c5ccc(S(C)(=O)=O)cc5)ccc43)cc2)no1 [NPA101.3]
- remaining binding at 0.1 µM (MYO3A): 77%
- remaining binding at 0.1 µM (DYRK1A): 95%
- binding (% bound) (FRK): > 90 % bound
- remaining binding at 0.1 µM (FRK; FRK, read-out: Percent Control): 1.1%
- remaining binding at 0.1 µM (PDPK1): 96%
- remaining binding at 0.1 µM (CAMK1): 95%
- remaining binding at 0.1 µM (DRAK1): 75%
- remaining binding at 0.1 µM (NEK2): 100%
- remaining binding at 0.1 µM (PLK4): 100%
- remaining binding at 0.1 µM (AURKA): 100%
- remaining binding at 0.1 µM (WNK1): 93%
- remaining binding at 0.1 µM (ERK1): 100%
- remaining binding at 0.1 µM (MYLK4): 89%
- remaining binding at 0.1 µM (ASK1): 95%
- remaining binding at 0.1 µM (PLK1): 99%
- remaining binding at 0.1 µM (MAP4K3): 95%
- remaining binding at 0.1 µM (BRAF): 98%
- remaining binding at 0.1 µM (PAK1): 100%
- remaining binding at 0.1 µM (MUSK): 23%
- remaining binding at 0.1 µM (PKAC-beta): 82%
- remaining binding at 0.1 µM (FGFR3): 100%
- remaining binding at 0.1 µM (TSSK1B): 96%
- remaining binding at 0.1 µM (CLK1): 82%
- remaining binding at 0.1 µM (BUB1): 100%
- remaining binding at 0.1 µM (TIE2): 30%
- remaining binding at 0.1 µM (GAK): 42%
- remaining binding at 0.1 µM (ALK): 93%
- remaining binding at 0.1 µM (BMX): 94%
- remaining binding at 0.1 µM (HIPK2): 98%
- remaining binding at 0.1 µM (RIPK4): 100%
- remaining binding at 0.1 µM (S6K1): 100%
- remaining binding at 0.1 µM (EIF2AK1): 99%
